Measurements as given in paper PMC10547880, “Synthesis and biological evaluation of novel 1,2,3-triazole hybrids of cabotegravir: identification of potent antitumor activity against lung cancer” (Frontiers in Pharmacology, 2023).

What was measured:
H460 cells [1] = experiment: Apoptosis assay, Annexin V-FITC/PI flow cytometry, H460; format: cell-based, Human; conditions: H460, 2, 4 and 8 μM, 72 h
Experimental: Cells with a density of 3 × 10^5 cells per well were seeded in 6-well plates. After overnight adhesion, cells were treated with different concentrations of compounds for 72 h. Cells were harvested and stained with Annexin V-FITC and propidium iodide. Apoptotic ratio was quantified using the flow cytometry (BD Biosciences) and analyzed using the FlowJo software v10. Values were expressed as Mean ± SD, p < 0.05 was considered statistically significant. Data were performed using Graph Prim 7.0.
Apoptosis is a programmed-controlled process of cell self-destruction, and increased cell apoptosis can lead to cell death ([Wang et al., 2023]). To explore the preliminary molecular mechanisms of the synthesized compounds action, the apoptotic activity of compound 5i was evaluated by comparing the percentage of apoptotic cells with untreated cells using flow cytometry after staining with Annexin V-FITC and PI ([Chen et al., 2022a]). This assay facilitates the detection of necrotic cells (Q1, AV-/PI+), late apoptotic cells (Q2, AV+/PI+), early apoptotic cells (Q3, AV+/PI-), and live cells (Q4, AV-/PI-). H460 and H1299 cells were treated with different doses of compound 5i for 72h, and cells were collected, stained, and analyzed. The proportion of early and late apoptotic cells was added and their ratio relative to the total cells was calculated.

H460 cells [2] = experiment: Cellular ROS measurement (DCFH-DA), H460; format: cell-based, Human; conditions: H460, 5, 10 or 20 μM, 24 h
Experimental: Cells with a density of 5 × 10^3 cells/well were cultured in a 96-well plate. The cells were treated with different concentrations (0, 5, 10, 20 μM) of compounds for 24 h. Then the medium was replaced with 10 μM DCFH-DA dissolved in culture medium and incubated for 30min at 37°C in dark. The fluorescent cells were observed and photographed using a fluorescent microscope.
Reactive oxygen species (ROS) levels were determined quantitatively using the probe 2′-7′-dichlorodihydrofluorescin diacetate (H2DCFDA) ([Kim and Xue, 2020]). Under normal condition, ROS participated in mitochondrial electron transport, signal transduction, gene expression, and enzyme reactions. But excess or deficiency of ROS levels can result in the development of diseases including cancers, diabetes, atherosclerosis, neurodegenerative diseases and others ([Wang et al., 2023]). ROS induction is associated with mitochondrial membrane damage, cell apoptosis, and ultimately cell death ([Dixon and Stockwell, 2014]). To evaluate the effect of compound 5i on ROS generation, H460 cells were treated with 5 μM, 10 μM or 20 μM of compound 5i for 24 h. […] DCFH-DA has no fluorescence and it can pass through cell membrane freely. […] This phenomenon can be attributed to the reduction in the number of live cells; however, the observed fluorescence appeared more intense (Figure 5).

## COc1c2n(cc(C(=O)Nc3cccc(-c4cn(-c5ccccc5OC(F)(F)F)nn4)c3)c1=O)CC1OCC(C)N1C2=O (centres unmarked) [Compound 5i]
H460 cells [1]
  apoptotic cells (early + late): significant increase in apoptotic cells
H460 cells [2]
  ROS generation: significant augmentation in ROS generation
